Several values for one entry are separate records, joined by “and”; a condition that tells them apart may be missing. Equal values may be shown once.
System: NCI-H1876 tumor spheroid viability
Assay: Anticancer human tumor NCI-H1876 cell line growth inhibition;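 note: spheroids exposed to compounds for seven days before the viability read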;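 for viability, T/C: percent of DMSO vehicle control viability so 100% = vehicle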
Settings: spheroids with HUVEC and MSC; for viability, T/C: stronger effect = lower value
How it was run: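 Complex tumor spheroids combined malignant cells with endothelial cells and mesenchymal stem cells. DNA-damaging drugs and DNA repair inhibitors were tested alone and in combination, at half-log dilutions down from clinical Cmax (top 10 microM if Cmax unknown), 0.25% DMSO final.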

## Cn1ncnc1[C@H]1c2n[nH]c(=O)c3cc(F)cc(c23)N[C@@H]1c1ccc(F)cc1 + Cn1nnc2c(C(N)=O)ncn2c1=O
Curve of first compound, second compound 1 µM
  IC50: 43.2 nM
Curve of first compound, second compound 3.16 µM
  IC50: 60.8 nM
Curve of first compound, second compound 10 µM
  IC50: 16 nM
Curve of first compound, second compound 31.6 µM
  IC50: < 9.49 nM
Curve of first compound, second compound 100 µM
  IC50: < 9.49 nM
Second compound 1 µM, first compound 0.00949 µM
  viability, T/C: 70.1%
Second compound 1 µM, first compound 0.03 µM
  viability, T/C: 54.6%
Second compound 1 µM, first compound 0.0949 µM
  viability, T/C: 39%
Second compound 1 µM, first compound 0.3 µM
  viability, T/C: 25.1%
Second compound 1 µM, first compound 0.949 µM
  viability, T/C: 10.8%
Second compound 1 µM, first compound 3 µM
  viability, T/C: 5.26%
Second compound 3.16 µM, first compound 0.00949 µM
  viability, T/C: 72.4%
Second compound 3.16 µM, first compound 0.03 µM
  viability, T/C: 52.1%
Second compound 3.16 µM, first compound 0.0949 µM
  viability, T/C: 52.3%
Second compound 3.16 µM, first compound 0.3 µM
  viability, T/C: 20%
Second compound 3.16 µM, first compound 0.949 µM
  viability, T/C: 50%
Second compound 3.16 µM, first compound 3 µM
  viability, T/C: 15.5%
Second compound 10 µM, first compound 0.00949 µM
  viability, T/C: 56.8%
Second compound 10 µM, first compound 0.03 µM
  viability, T/C: 38.1%
Second compound 10 µM, first compound 0.0949 µM
  viability, T/C: 47.2%
Second compound 10 µM, first compound 0.3 µM
  viability, T/C: 15%
Second compound 10 µM, first compound 0.949 µM
  viability, T/C: 33.5%
Second compound 10 µM, first compound 3 µM
  viability, T/C: 5.45%
Second compound 31.6 µM, first compound 0.00949 µM
  viability, T/C: 29.2%
Second compound 31.6 µM, first compound 0.03 µM
  viability, T/C: 19.2%
Second compound 31.6 µM, first compound 0.0949 µM
  viability, T/C: 14.5%
Second compound 31.6 µM, first compound 0.3 µM
  viability, T/C: 12%
Second compound 31.6 µM, first compound 0.949 µM
  viability, T/C: 8.61%
Second compound 31.6 µM, first compound 3 µM
  viability, T/C: 4.86%
Second compound 100 µM, first compound 0.00949 µM
  viability, T/C: 13.8%
Second compound 100 µM, first compound 0.03 µM
  viability, T/C: 10.8%
Second compound 100 µM, first compound 0.0949 µM
  viability, T/C: 11.6%
Second compound 100 µM, first compound 0.3 µM
  viability, T/C: 9.19%
Second compound 100 µM, first compound 0.949 µM
  viability, T/C: 33.3%
Second compound 100 µM, first compound 3 µM
  viability, T/C: 4.67%

## CNCc1ccc(-c2cc(-c3nc(-c4ccc(S(=O)(=O)C(C)C)cc4)cnc3N)on2)cc1
Compound 0.00949 µM
  viability, T/C: 97.7% and 86.9% and 104%
Compound 0.03 µM
  viability, T/C: 76.6% and 72.2% and 99.9%
Compound 0.0949 µM
  viability, T/C: 59.2% and 49.9% and 105%
Compound 0.3 µM
  viability, T/C: 31.1% and 27.1% and 92.3%
Compound 0.949 µM
  viability, T/C: 16.1% and 10.4% and 48.3%
Compound 3 µM
  viability, T/C: 10.2% and 0.26% and 20.5%
Curve of compound
  IC50: 126 nM and 95.3 nM and 906 nM

From PubChem BioAssay AID1845207 (Molecular Pharmacology Branch, DTP, NCI, 2023)
